In US20050282772A1, “New dietary supplement composition for obesity and inflammation” (priority 2004, published 2005):

How the values were obtained:
[1] = similar active dose; animal study; cited from earlier work
5-Lipoxygenase = 5-Lipoxygenase inhibitory activity, colorimetric method (ferric xylenol orange); assay type: biochemical
Method: 5-Lipoxygenase Activity: The new phytochemical compositions were screened for their 5-Lipoxygenase inhibitory potential using colorimetric method. The assay mixture contained 50 mM phosphate buffer pH 6.3, 5-Lipoxygenase, various concentrations of test substances in dimethyl sulphoxide and linoleic acid in a total volume of 0.5 mL, after 5 min incubation of above reaction mixture, 0.5 mL ferric xylenol orange reagent was added and OD was measured after two minutes at 585 nm using spectrophotometer. Controls were run along with test in a similar manner except using vehicle instead of test substance solution. Percent inhibition was calculated by comparing absorbance of test solution with that of control. The new phytochemical compositions of this invention are found to show 5-lipoxygenase activity (Table 1; 5-lipoxygenase activity is expressed in % of inhibition at 100 μg concentrations; higher the % inhibitory values, higher is the activity).

[2] = Superoxide free radical-scavenging activity by NBT (nitro blue tetrazolium) method
Method: Superoxide Free Radical-Scavenging Activity. The superoxide free radical-scavenging activity was determined by the NBT (nitro blue tetrazolium) method. The reaction mixture contained EDTA (6.6 mM), NaCN (3 μg), riboflavin (2 μM), NBT (50 μM), various concentrations of the test drug in ethanol and a phosphate buffer (58 mM, pH 7.8) in a final volume of 3 ml. Optical density was measured at 560 nm. The test tubes were uniformly illuminated with an incandescent lamp for 15 min, after which the optical density was measured again at 560 nm. The percentage inhibition and superoxide radical generation was measured by comparing the absorbance values of the control and those of the test compounds.
(§1) The new phytochemical compositions of this invention are found to show antioxidant activity (Table 1; antioxidant activity is measured by two different mechanisms (a) Nitro blue tetrazolium (NBT) (b) DPPH free radical scavenging methods and are expressed in % of inhibition at 500 μg concentrations; higher the % inhibitory values, higher is the activity).

[3] = DPPH free radical scavenging activity
Method: DPPH Free Radical Scavenging Activity. DPPH (1,1-diphenyl-2-picryl-hydrazyl) radical scavenging activity was measured based on the reduction of methanolic solution of the colored DPPH. Free radical scavenging ability of the test drug in ethanol added to the methanolic solution of DPPH is […] to the difference in initial and final absorption of DPPH solution at 516 nm. The reaction mixture contained 1×10^−4 mM methanolic solution of DPPH and various concentrations of test drugs. The percentage inhibition was determined by comparing the absorbance values of test and control tubes.
as §1

[4] = in vivo; cited from earlier work

Row | Compound | ulcerogan index [1] | % inhibition of 5-LOX activity at 100 μg concentrations (5-Lipoxygenase) [%] | % inhibition of NBT free radical scavenging activity at 500 μg concentrations [2] [%] | % inhibition of DPPH free radical scavenging activity at 500 μg concentrations [3] [%] | LD50 [4] [mg/kg]
1 | CCCCC1C(=O)N(c2ccccc2)N(c2ccccc2)C1=O [phenylbutazone] | 1.7 |  |  |  | 
2 | Calcium, potassium salt of (−)-HCA [HCA (70%)] |  | 0.2 | 25.5 | 0 | 
3 | N[C@@H](Cc1c[nH]c2ccc(O)cc12)C(=O)O [Composition 5-HTP, 5-Hydroxytryptophan] |  |  |  |  | > 2500
4 | Cl.N[C@H]1C(O)O[C@H](CO)[C@@H](O)[C@@H]1O (some centres unmarked) [Glucosamine HCl, glucosamine hydrochloride] |  | 0 | 5.6 | 2.8 | 
